The record followed here is US6472141B2, “Kinase assays using polycations” (Caliper Technologies Corp., priority 1999, dated 2002).

Common to all, as to assay type: binding
For one data set, the system named is DNA target 182. The data set is described as follows: PNA/DNA hybridization detected by fluorescence polarization, non-complementary target. From the text:
(§1) A fluorescein-labeled peptide nucleic acid molecule 202 was used in hybridization experiments with the DNA targets 192 and 182. PNAs are generally commercially available from the Applied Biosystems Division of the Perkin-Elmer Corporation (Foster City, Calif.). The sequence of these molecules is illustrated below. In the case of the PNA molecule, the given sequence illustrates the analogous sequence of a DNA molecule. The sequences of the three molecules are as follows:
(§2) DNA sequence 192 contains 13 bases (shown in bold) that are fully complementary to the PNA probe 202, whereas 182 is a non-complementary oligonucleotide.
(§3) A solution containing 1 μM of PNA 202 in 50 mM HEPES pH 7.5 was mixed with either 5 μM of 192 or 5 μM of 182. The mixtures were left at room temperature for about 10 min. and then placed in the cuvette of a fluorimeter equipped to measure fluorescence polarization. The measurements were carried out using 490 nm for excitation and 520 nm for detection of fluorescence emission. The fluorescence polarization values were recorded first in the absence and then in the presence of poly-L-Lysine hydrobromide, having a molecular weight of approximately 70-100 kD (Sigma Chemicals). The poly-L-Lysine was added from a stock solution in water (approx. 440 μM). The final concentrations of the poly Lysine were 4.4 and 8.8 μM.
For orientation: Polarisation of emitted light reports the rotation of a fluorescent probe.

The next data set has as its system DNA target 192. The data set is described as follows: PNA/DNA hybridization detected by fluorescence polarization, complementary target.
Description: as §1, §2, §3

In the next data set the test system is DNA 244. The data set is described as follows: Single nucleotide substitution detection by fluorescence polarization of PNA probe. The following applies: 250 nM probe, about 3 μM poly-L-Lysine, 50 mM HEPES pH 7.5, 100 mM NaCl. From the text: The assay methods were employed to detect differential hybridization of a nucleic acid probe to a perfectly complementary target sequence and a target sequence incorporating a single base variation, e.g., a single nucleotide polymorphism (SNP). In particular, a fluoresceinated PNA probe having a sequence complementary to a subsequence of a target sequence was used to probe the target including the subsequence and a target in which an interior base of the subsequence was substituted for a different base.
The 5′ to 3′ sequences of the PNA probe (PNA 7637)(SEQ ID NO:4), the target DNA sequence (DNA 244) (SEQ. ID NO.5) and single base mismatch target DNA sequence (DNA 245) (SEQ. ID NO.6) were as follows:
The PNA probe 7637 was used at a final concentration of 250 nM, in a reaction volume of 400 μl. The buffer used was 50 mM HEPES pH 7.5, 100 mM NaCl. The solution also contained poly-L-Lysine at about 3 μM. One μl aliquots of the DNA targets 244 and 245 were added iteratively to the PNA solution and the fluorescence polarization (excitation 490, emission 520 nm) was recorded after the addition of each aliquot. The data from this experiment is illustrated in FIG. 22. […] As can also be seen, hybridization plateaued at approximately a […] of target sequence in the perfectly complementary example.

{Fl-O} = fluorescein attached through an O linker; {Fluorescein} = fluorescein label

Consider “5′Fl-O-GTCAAATACTCCA (all peptide nucleic acid (PNA), 5' {Fl-O}) [compound 202, ID NO.1]”, for which the polarization value with DNA target 182 (1 μM 202 with 5 μM non-complementary 182, without poly-L-Lysine) is given as 86 mP; in the data set with DNA target 182 (202 with non-complementary 182, in the presence of poly-L-Lysine), 140 mnP; in the data set with DNA target 192 (202 hybrid with complementary 192, in the absence of poly-L-Lysine), “about 100 mP”; in the data set on DNA target 192 (202 hybrid with complementary 192, in the presence of poly-L-Lysine) it was 229 mP.
“Fluorescein-CCTGTAGCA (all peptide nucleic acid (PNA), 5' {Fluorescein}) [PNA probe 7637]”: in the data set on DNA 244, the “fluorescence polarization, perfectly complementary target vs single base mismatch target (DNA 245)” value is reported as “substantially higher levels of fluorescence polarization”.
